Values of other authors as cited in paper PMC9762682, “Tocotrienols: Exciting Biological and Pharmacological Properties of Tocotrienols and Naturally Occurring Compounds, Part II” (Annals of clinical case reports, 2022).
Read-outs that look alike come from different tables or passages of the source. Marks after values point to notes of the source that are not given here.

Key:
[1] = set-up: method as in ref 14 = [14]; PMID 27493840; doi:10.4172/2155-9880.1000434; 14. Qureshi AA , Khan DA , Saleem S , Silswal N , Trias AM , Tan B , Pharmacokinetics and bioavailability of Annatto δ-tocotrienol in healthy fed subjects . J Clin Exp Cardiol . 2015; 6 : 11 . 10.417; conditions: for time of appearance in the plasma: after δ-tocotrienol administration to well-fed subjects; for Elimination of Half-life time (t1/2) / Elimination rate constant (ke) / Plasma Peak Concentration (Cmax) / Time to achieve plasma peak (Tmax): healthy fed subjects
[2] = set-up: method as in ref 16 = [16]; PMID 27493840; doi:10.4172/2155-9880.1000434; 16. Qureshi AA , Khan DA , Silswal N , Saleem S , Qureshi N . Evaluation of pharmacokinetics and bioavailability of higher doses of δ-tocotrienol in healthy fed humans . J Clin Exp Cardiol . 2016; 7
[3] = plasma tocol after single 125 mg δ-tocotrienol dose
[4] = plasma tocol after single 250 mg δ-tocotrienol dose
[5] = plasma tocol after single 500 mg δ-tocotrienol dose
[6] = 0 Hr., single dose 750 mg δ-tocotrienol
[7] = 0 Hr., single dose 1000 mg δ-tocotrienol
[8] = 1 hr., single dose 750 mg δ-tocotrienol
[9] = 1 hr., single dose 1000 mg δ-tocotrienol
[10] = 2 hr., single dose 750 mg δ-tocotrienol
[11] = 2 hr., single dose 1000 mg δ-tocotrienol
[12] = 4 hr., single dose 750 mg δ-tocotrienol
[13] = 4 hr., single dose 1000 mg δ-tocotrienol
[14] = 6 hr., single dose 750 mg δ-tocotrienol
[15] = 6 hr., single dose 1000 mg δ-tocotrienol
[16] = 8 hr., single dose 750 mg δ-tocotrienol
[17] = 8 hr., single dose 1000 mg δ-tocotrienol
[18] = single dose 750 mg δ-tocotrienol
[19] = single dose 1000 mg δ-tocotrienol
[20] = plasma tocol after single dose 750 mg δ-tocotrienol
[21] = plasma tocol after single dose 1000 mg δ-tocotrienol

time of appearance in the plasma [1] [h]	Elimination of Half-life time (t1/2) [1, 3]	Elimination rate constant (ke) [1, 3]	Plasma Peak Concentration (Cmax) [1, 3]	Time to achieve plasma peak (Tmax) [1, 3] [h]	Elimination rate constant (ke) [1, 4]	Time to achieve plasma peak (Tmax) [1, 4] [h]	Elimination of Half-life time (t1/2) [1, 5]	Elimination rate constant (ke) [1, 5]	Plasma Peak Concentration (Cmax) [1, 5]	Time to achieve plasma peak (Tmax) [1, 5] [h]	plasma tocol level [2, 6] [ng/mL]	plasma tocol level [2, 7] [ng/mL]	plasma tocol level [2, 8] [ng/mL]	plasma tocol level [2, 9] [ng/mL]	plasma tocol level [2, 10] [ng/mL]	plasma tocol level [2, 11] [ng/mL]	plasma tocol level [2, 12] [ng/mL]	plasma tocol level [2, 13] [ng/mL]	plasma tocol level [2, 14] [ng/mL]	SMILES	other results
> 2	2.45 ± 0.37^a h	0.184 ± 0.121^a h-1	507.64 ± 24.68^a ng/mL	5.46 ± 0.93	0.146 ± 0.013^b h-1	3.00	4.99 ± 0.88^b h	0.126 ± 0.026^a h-1	605.64 ± 48.17^b ng/mL	2.82 ± 0.41	319 ± 30	330 ± 34	404 ± 44	412 ± 17	433 ± 26	457 ± 33	547 ± 12	589 ± 39	273 ± 67	Cc1c(O)cc2c(c1C)O[C@](C)(CCC[C@H](C)CCC[C@H](C)CCCC(C)C)CC2 [γ-Tocopherol]	Elimination of Half-life time (t1/2) [1, 4]: 5.17 ± 1.06^b h; Plasma Peak Concentration (Cmax) [1, 4]: 643.36 ± 37.26^b ng/mL; plasma tocol level [2, 15]: 241 ± 28 ng/mL; plasma tocol level [2, 16]: 212 ± 16 ng/mL; plasma tocol level [2, 17]: 183 ± 14 ng/mL; Total tocols (sum of 0-8 h) [2, 18]: 2188 ng/mL; Total tocols (sum of 0-8 h) ([2]; single dose 750 mg δ-tocotrienol, listed as γ-tocopherol): 5544 ng/mL; Total tocols (sum of 0-8 h) [2, 19]: 2212 ng/mL
> 2	3.25 ± 0.79^a h	0.118 ± 0.032^a h-1	341.18 ± 62.19^a ng/mL	6.00	0.076 ± 0.008^b h-1	4.18 ± 0.60	3.58 ± 0.67^a h	0.183 ± 0.027^c h-1	1027.73 ± 71.93^c ng/mL	3.00	894 ± 69	888 ± 22	949 ± 11	986 ± 18	1195 ± 69	1266 ± 25	1348 ± 93	1473 ± 71	726 ± 51	Cc1cc(O)cc2c1O[C@](C)(CCC[C@H](C)CCC[C@H](C)CCCC(C)C)CC2 [δ-Tocopherol]	Elimination of Half-life time (t1/2) [1, 4]: 5.22 ± 0.62^b h; Plasma Peak Concentration (Cmax) [1, 4]: 756.27 ± 72.70^b ng/mL; plasma tocol level [2, 15]: 765 ± 44 ng/mL; plasma tocol level [2, 16]: 432 ± 45 ng/mL; plasma tocol level [2, 17]: 500 ± 25 ng/mL; Total tocols (sum of 0-8 h) [2, 18]: 5544 ng/mL; Total tocols (sum of 0-8 h) ([2]; single dose 750 mg δ-tocotrienol, listed as δ-tocopherol): 13117 ng/mL; Total tocols (sum of 0-8 h) [2, 19]: 5878 ng/mL

SMILES	time of appearance in the plasma [1] [h]	Elimination of Half-life time (t1/2) [1, 3]	Elimination rate constant (ke) [1, 3]	Plasma Peak Concentration (Cmax) [1, 3]	Time to achieve plasma peak (Tmax) [1, 3] [h]	Elimination rate constant (ke) [1, 4]	Time to achieve plasma peak (Tmax) [1, 4] [h]	Elimination of Half-life time (t1/2) [1, 5]	Elimination rate constant (ke) [1, 5]	Plasma Peak Concentration (Cmax) [1, 5]	Time to achieve plasma peak (Tmax) [1, 5] [h]	plasma tocol level [2, 6] [ng/mL]	plasma tocol level [2, 7] [ng/mL]	plasma tocol level [2, 8] [ng/mL]	plasma tocol level [2, 9] [ng/mL]	plasma tocol level [2, 10] [ng/mL]	plasma tocol level [2, 11] [ng/mL]	plasma tocol level [2, 12] [ng/mL]	plasma tocol level [2, 13] [ng/mL]	plasma tocol level [2, 14] [ng/mL]	other results
CC(C)=CCC/C(C)=C/CC/C(C)=C/CC[C@]1(C)CCc2cc(O)c(C)c(C)c2O1 [γ-Tocotrienol]	> 2	3.82 ± 0.99^a h	0.113 ± 0.026^a h-1	281.34 ± 21.22^a ng/mL	3.00	0.133 ± 0.037^a h-1	3.00	2.25 ± 0.32^c h	0.097 ± 0.021^b h-1	1224.64 ± 61.28^c ng/mL	3.55 ± 0.52	795 ± 19	843 ± 13	1035 ± 10	1065 ± 7	1183 ± 16	1251 ± 32	1352 ± 23	1387 ± 10	361 ± 74	plasma tocol level [2, 15]: 484 ± 17 ng/mL; plasma tocol level [2, 16]: 329 ± 17 ng/mL; plasma tocol level [2, 17]: 374 ± 27 ng/mL; Area Under the Curve-t0 - ∞ (AUC0-∞) [2, 20]: 7895.14 ± 73.43^b ng/ml; Elimination of Half-life time (t1/2) [2, 20]: 1.96 ± 0.06^b h; Elimination rate constant (ke) [2, 20]: 0.353 ± 0.125^a h-1; Peak Plasma Concentration (Cmax) [2, 20]: 1352.41 ± 28.14^b ng/ml; Time to achieve plasma peak (Tmax) [2, 20]: 4.00^a h; Area Under the Curve-t0 - ∞ (AUC0-∞) [2, 21]: 8626.41 ± 277.17^b ng/ml; Elimination of Half-life time (t1/2) [2, 21]: 2.12 ± 0.14^b h; Elimination rate constant (ke) [2, 21]: 0.328 ± 0.286^a h-1; Time to achieve plasma peak (Tmax) [2, 21]: 4.00^a h; Total tocols (sum of 0-8 h) [2, 18]: 5055 ng/mL; Total tocols (sum of 0-8 h) [2, 19]: 5404 ng/mL
